Source: EP0210342A2, “Medicament containing pyridinones having an antithrombotic activity” (Dr. Karl Thomae GmbH, priority 1985, dated 1987)

Assays:
Thrombusbildung = experiment: Stenosis-induced spontaneous coronary thrombus formation in anaesthetised dogs (shake loose, Folts); type: in vivo, Hunde; details: for antithrombotische Wirkung: 1 mg/kg; for Verminderung der Häufigkeit der Spontanverschlüsse: 1 mg/kg i.v.
[1] = Acute toxicity in mice (LD50, 14 days observation); design: species or system Mäusen; details: mouse, in vivo, observation 14 days
Source text: Die akute Toxizität der zu untersuchenden Substanzen wurde an Mäusen (Beobachtungszeit: 14 Tage) nach oraler bzw. intravenöser Gabe bestimmt. Es wurde die LD₅₀ aus dem Prozentsatz der Tiere berechnet, die nach verschiedenen Dosen innerhalb der Beobachtungszeit verstarben: […]

CC(C)NCC(O)COc1ccc(CC(N)=O)cc1 (stereo not drawn) [Atenolol, reference compound]
antithrombotische Wirkung (Thrombusbildung): nicht antithrombotisch

COc1ccc2nc(-c3ccc(OCC(O)CNC(C)(C)C)cc3)n(C)c(=O)c2c1 (stereo not drawn) [Verbindung B, 2-[4-(2-Hydroxy-3-tert.butylamino-propoxy)-phenyl]-3-methyl-6-methoxy-3,4-dihydro-chinazolin-4-on]
LD50 at 336 h ([1]; iv): 75 mg/kg
LD50 at 336 h ([1]; po): 750 mg/kg

COc1ccc2nc(-c3ccc(OCC(O)CNC(C)(C)C)cc3)n(C)c(=O)c2c1 (single isomer, unassigned; (-)) [Verbindung C, (-)-2-2[4-(2-Hydroxy-3-tert.butylamino-propoxy)-phenyl]-3-methyl-6-methoxy-3,4-dihydro-chinazolin-4-on]
Verminderung der Häufigkeit der Spontanverschlüsse (Thrombusbildung; 30th to 60th minute after substance): 73%
Verminderung der Häufigkeit der Spontanverschlüsse (Thrombusbildung; first 30 min after substance): 55%

CC(C)NCC(O)COc1cccc2ccccc12 (stereo not drawn) [Propranolol, reference compound]
antithrombotische Wirkung (Thrombusbildung): nicht antithrombotisch
